Measurements from patent US9328386B2, “Markers for susceptibility to an inhibitor of an Src-family kinase” (Evotec (München) GmbH, priority 2011, dated 2016).
Read-outs that look alike come from different tables or passages of the source.

Key:
H2172 NSCLC cell line = details: dasatinib, cited from earlier work
H647 NSCLC cell line = assay: Cellular growth inhibition (CellTiter Glo viability assay); type: cell-based; details: Homo sapiens, NCI-H647, 96 h; read-out: GI50 this paper
[1] = test system: BT-20 breast cancer cell line; details: dasatinib, cited from earlier work
H520 NSCLC cell line = details: dasatinib, cited from earlier work
HOP62 NSCLC cell line [2] = details: dasatinib, cited from earlier work
HCC2279 NSCLC cell line = details: dasatinib, cited from earlier work
[3] = test system: HCC1937 breast cancer cell line; assay: Cellular growth inhibition (CellTiter Glo viability assay); type: cell-based; details: Homo sapiens, HCC1937, 96 h; read-out: GI50 this paper
H322 NSCLC cell line = assay: as above; type: cell-based; details: Homo sapiens, NCI-H322, 96 h; read-out: GI50 this paper
H1648 NSCLC cell line = details: dasatinib, cited from earlier work
advanced NSCLC = details: among thirty-four patients with advanced NSCLC; Johnson, Bekele et al., 2010; cited from earlier work
H1568 NSCLC cell line [4] = assay: Cellular growth inhibition (CellTiter Glo viability assay); type: cell-based; details: Homo sapiens, NCI-H1568, 96 h; read-out: GI50 this paper
[5] = test system: MDA-MB-468 breast cancer cell line; assay: as above; type: cell-based; details: Homo sapiens, MDA-MB-468, 96 h; read-out: GI50 this paper
HCC78 NSCLC cell line = details: dasatinib, cited from earlier work
H460 NSCLC cell line = details: dasatinib, cited from earlier work
H1568 NSCLC cell line [6] = details: dasatinib, cited from earlier work
H322M NSCLC cell line = details: dasatinib, cited from earlier work
[7] = test system: HCC1937 breast cancer cell line; details: dasatinib, cited from earlier work
LCLC103H NSCLC cell line [8] = assay: Cellular growth inhibition (CellTiter Glo viability assay); type: cell-based; details: Homo sapiens, LCLC-103H, 96 h; read-out: GI50 this paper
H2887 NSCLC cell line = assay: as above; type: cell-based; details: Homo sapiens, NCI-H2887, 96 h; read-out: GI50 this paper
H2077 NSCLC cell line = details: dasatinib, cited from earlier work
HCC1359 NSCLC cell line = assay: Cellular growth inhibition (CellTiter Glo viability assay); type: cell-based; details: Homo sapiens, 96 h; read-out: GI50 this paper
[9] = test system: BT-549 breast cancer cell line; assay: as above; type: cell-based; details: Homo sapiens, BT-549, 96 h; read-out: GI50 this paper
Calu6 NSCLC cell line = details: dasatinib, cited from earlier work
[10] = test system: BT-549 breast cancer cell line; details: dasatinib, cited from earlier work
HOP62 NSCLC cell line [11] = assay: Cellular growth inhibition (CellTiter Glo viability assay); type: cell-based; details: Homo sapiens, HOP-62, 96 h; read-out: GI50 this paper
LouNH91 NSCLC cell line = details: dasatinib, cited from earlier work
H2030 NSCLC cell line = details: dasatinib, cited from earlier work
PC9 NSCLC cell line = details: dasatinib, cited from earlier work
HCC366 NSCLC cell line = details: dasatinib, cited from earlier work
LCLC103H NSCLC cell line [12] = details: dasatinib, cited from earlier work
[13] = Sos et al. 2009, read-out: GI50 literature
[14] = Huang et al. 2007, read-out: GI50 literature

In the case of Cc1nc(Nc2ncc(C(=O)Nc3c(C)cccc3Cl)s2)cc(N2CCN(CCO)CC2)n1 [dasatinib, N-(2-chloro-6-methylphenyl)-2-[[6-[4-(2-hydroxyethyl)piperazin-1-yl]-2-methylpyrimidin-4-yl]amino]-1,3-thiazole-5-carboxamide], the GI50 (H2172 NSCLC cell line; [13]) is given as 16.7 µM, the IC50 (H2172 NSCLC cell line; read-out: Class) is given as greater than 1 µM and the GI50 (H647 NSCLC cell line) is given as 0.016 µM. For the same molecule, the GI50 [1, 14] was 0.165 µM, the IC50 ([1]; read-out: Class) was less than 1 µM and the GI50 (H520 NSCLC cell line; [13]) was 11.6 µM. For the same molecule, the IC50 (H520 NSCLC cell line; read-out: Class) was greater than 1 µM, the GI50 (HOP62 NSCLC cell line [2]; [13]) was 12.8 µM and the IC50 (HOP62 NSCLC cell line [2]; read-out: Class) was greater than 1 µM. The GI50 (HCC2279 NSCLC cell line; [13]) was 0.139 µM, the IC50 (HCC2279 NSCLC cell line; read-out: Class) was less than 1 µM and the GI50 [3] was 0.082 µM. The GI50 (H322 NSCLC cell line) was 2.1 µM, the GI50 (H1648 NSCLC cell line; [13]) was 0.0593 µM and the Class (H1648 NSCLC cell line) was less than 1000 nM. The metabolic responses (advanced NSCLC) was “eleven”, the partial response (advanced NSCLC) was “one” and the GI50 (H1568 NSCLC cell line [4]) was 5.44 µM. For the same molecule, the GI50 [5] was 2.8 µM, the GI50 (HCC78 NSCLC cell line; [13]) was 13.9 µM and the IC50 (HCC78 NSCLC cell line; read-out: Class) was greater than 1 µM. The GI50 (H460 NSCLC cell line; [13]) was 24.2 µM, the IC50 (H460 NSCLC cell line; read-out: Class) was greater than 1 µM and the GI50 (H1568 NSCLC cell line [6]; [13]) was 0.897 µM. For the same molecule, the Sensitivity class (H1568 NSCLC cell line [6]) was less than 1000 nM, the GI50 (H322M NSCLC cell line; [13]) was 0.0819 µM and the IC50 (H322M NSCLC cell line; read-out: Class) was less than 1 µM. For the same molecule, the GI50 [7, 14] was 0.07 µM, the Sensitivity class [7] was less than 1000 nM and the GI50 (LCLC103H NSCLC cell line [8]) was 0.08 µM. The GI50 (H2887 NSCLC cell line) was 0.176 µM, the GI50 (H2077 NSCLC cell line; [13]) was 10.1 µM and the Sensitivity class (H2077 NSCLC cell line) was greater than 1000 nM. The GI50 (HCC1359 NSCLC cell line) was 0.52 µM, the GI50 [9] was 1.71 µM and the GI50 (Calu6 NSCLC cell line; [13]) was 22.5 µM. For the same molecule, the IC50 (Calu6 NSCLC cell line; read-out: Class) was greater than 1 µM, the GI50 [10, 14] was 9.06 µM and the IC50 ([10]; read-out: Class) was greater than 1 µM. For the same molecule, the GI50 (HOP62 NSCLC cell line [11]) was 0.014 µM, the GI50 (LouNH91 NSCLC cell line; [13]) was 0.113 µM and the IC50 (LouNH91 NSCLC cell line; read-out: Class) was less than 1 µM. The GI50 (H2030 NSCLC cell line; [13]) was 0.118 µM, the Sensitivity class (H2030 NSCLC cell line) was less than 1000 nM and the GI50 (PC9 NSCLC cell line; [13]) was 0.46 µM. The IC50 (PC9 NSCLC cell line; read-out: Class) was less than 1 µM, the GI50 (HCC366 NSCLC cell line; [13]) was 0.482 µM and the IC50 (HCC366 NSCLC cell line; read-out: Class) was less than 1 µM. For the same molecule, the GI50 (LCLC103H NSCLC cell line [12]; [13]) was 13.9 µM and the IC50 (LCLC103H NSCLC cell line [12]; read-out: Class) was greater than 1 µM.
